Source: publication PMC3521585 (Journal of medicinal chemistry, 2009)

Biological target: Substance P receptors (GPI) (Cavia porcellus, UniProt P30547)
Experiment: Substance P antagonist assay in guinea pig ileum with naloxone
Type: cell-based
Settings: against Substance P induced contraction, 1 μM naloxone, n = 4

Chain of Substance P receptors (GPI) (P30547 whole entry): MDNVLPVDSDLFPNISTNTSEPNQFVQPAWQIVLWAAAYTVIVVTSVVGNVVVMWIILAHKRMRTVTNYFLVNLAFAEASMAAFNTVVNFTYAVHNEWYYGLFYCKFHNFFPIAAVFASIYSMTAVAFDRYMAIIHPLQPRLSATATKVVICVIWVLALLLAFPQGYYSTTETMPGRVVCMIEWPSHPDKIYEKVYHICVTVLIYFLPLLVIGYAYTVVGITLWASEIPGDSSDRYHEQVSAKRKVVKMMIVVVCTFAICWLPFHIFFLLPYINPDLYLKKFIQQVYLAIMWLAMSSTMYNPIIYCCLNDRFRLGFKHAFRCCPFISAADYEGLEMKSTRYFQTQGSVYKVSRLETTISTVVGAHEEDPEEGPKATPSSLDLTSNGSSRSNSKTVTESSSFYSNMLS

In the case of `CC(=O)N[C@@H](Cc1c[nH]c2ccccc12)C(=O)OCc1cc(C(F)(F)F)cc(C(F)(F)F)c1` [L-732,138, Ac-Trp-O-3’,5’-Bzl(CF3)2], the “Ke, GPI, Substance P antagonist” value is reported as 250 ± 87 nM.
